Laboratory results: patent US20260159520A1, “HETEROBIFUNCTIONAL COMPOUNDS AND METHODS OF TREATING DISEASE” (Halda Therapeutics OpCo, Inc., priority 2022, published 2026)

Tests used:
CDK9 = target: T1, CDK9 (Homo sapiens, UniProt P50750); assay: KdELECT binding assay, CDK9; settings: CDK9, Table 7
T1 construct: made in house; host or cells: E. coli BL21-derived host (T7 phage) or HEK-293 ('BEK-293' [sic])
Summary of the method: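 Phage-tagged or HEK-derived DNA-tagged kinases competed 1 h at room temperature against bead-immobilised biotinylated ligand in SeaBlock/PBS/Tween/DTT buffer, 0.9% DMSO final. Bound kinase eluted with 0.5 μM free ligand and quantified by qPCR; Kd from 11-point 3-fold dilution series.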

[1] = tested on: T-Rex 293 cell line SC cells lacking increased expression of progesterone receptor isoform B protein; assay: Cellular growth inhibition, T-Rex 293 SC cells without doxycycline; format: cell-based; settings: not exposed to doxycycline, 72 hours, CellTiter-Glo 2.0
Procedure: (§1) The following types of cells were prepared for this experiment: (i) a T-Rex 293 cell line having increased expression of progesterone receptor isoform B protein due to exposure to doxycycline and (ii) a T-Rex 293 cell line lacking increased expression of progesterone receptor isoform B protein. Ability of the test compounds to inhibit proliferation of the foregoing cell types was evaluated according to the procedures set forth below.
(§2) The doxycycline-inducible progesterone receptor isoform B protein expressing cell line was established using the following protocol: T-Rex 293 cells were purchased from Invitrogen (Cat #R71007) and transfected using Lipofectamine 2000 with the wild-type progesterone receptor B protein sequence cloned into the pcDNA4/TO vector. Transfected cells were selected using 400 μg/mL Zeocin (Invitrogen Cat #R25001). Following selection, single clones were raised and maintained in Dulbecco's Modified Eagle Medium (DMEM) supplemented with 10% w/w Tetracycline-free fetal bovine serum (FBS) and 250 μg/mL Zeocin. Clones were analyzed for expression of progesterone receptor isoform B protein in the presence and absence of 10 ng/mL doxycycline (Sigma Cat #D9891), and a single doxycycline-inducible clone (hereinafter “SC”) was selected for use in downstream assays.
(§3) The SC cells were seeded on poly-D-lysine coated, black clear-bottom 384-well plates at 2500/well, in 25 μL Phenol Red Free Dulbecco's Modified Eagle Medium (DMEM) supplemented with 10% w/w charcoal-dextran treated fetal bovine serum (FBS) and 1% w/w pen-strep, with or without 10 ng/mL doxycycline. Pen-Strep is a commercially available mixture of penicillin G and streptomycin, which is used in mammalian cell culture media to prevent bacterial contamination. Phenol Red Free Dulbecco's Modified Eagle Medium (DMEM) supplemented with 10% w/w charcoal-dextran treated fetal bovine serum (FBS) and 1% w/w pen-strep, with or without 10 ng/mL doxycycline is herein referred to as Treatment Medium. Following seeding of cells in the plates, the plates were spun at 300×g for 30 seconds, then equilibrated to room temperature for 30 minutes, and then deposited in a humidified tissue culture incubator maintained at 37° C. with 5% CO2.
(§4) At 24 hours after seeding of the cells, dilutions of test compound were prepared in DMSO and dissolved in Treatment Medium, to achieve a final DMSO concentration of 0.5% w/w, thereby providing the Test Compound Solution. A 25 μL aliquot of the Test Compound Solution was added to cells in the well plates. An equal volume of a solution containing DMSO and Treatment Medium was used as a negative control. Following treatment of cells with Test Compound Solution or said equal volume of a solution containing DMSO and Treatment Medium, the plates were spun at 300×g for 30 seconds, and then left in an incubator for 72 hours.
(§5) At the end of the treatment duration, cell viability was quantified with CellTiter-Glo 2.0 reagent (Promega Cat #G9243). For this purpose, plates were equilibrated to room temperature for 30 minutes, and then 25 μL of CellTiter-Glo 2.0 reagent was added to cells in the plate wells. Plates were then agitated on a shaker for two minutes at 500 rpm and subsequently incubated at room temperature for 10 minutes. Following incubation, the plates were spun at 3000×g for 30 seconds, then sealed with an optical adhesive cover, and luminescence readings were measured with an EnVision Plate Reader (Perkin Elmer).
(§6) Data was normalized using zero luminescence for baseline. A four-parameter non-linear regression curve fit was applied to dose-response data in GraphPad Prism data analysis software to determine the half-maximal growth inhibitory concentration (GI50) for each test compound.

[2] = tested on: T-Rex 293 cell line SC cells having increased expression of progesterone receptor isoform B protein; assay: Cellular growth inhibition, T-Rex 293 SC cells with doxycycline (increased progesterone receptor isoform B expression); format: cell-based; settings: with 10 ng/mL doxycycline (increased progesterone receptor isoform B), 72 hours, CellTiter-Glo 2.0
Procedure: as §1, §2, §3, §4, §5, §6

T1 sequence (P50750 whole entry): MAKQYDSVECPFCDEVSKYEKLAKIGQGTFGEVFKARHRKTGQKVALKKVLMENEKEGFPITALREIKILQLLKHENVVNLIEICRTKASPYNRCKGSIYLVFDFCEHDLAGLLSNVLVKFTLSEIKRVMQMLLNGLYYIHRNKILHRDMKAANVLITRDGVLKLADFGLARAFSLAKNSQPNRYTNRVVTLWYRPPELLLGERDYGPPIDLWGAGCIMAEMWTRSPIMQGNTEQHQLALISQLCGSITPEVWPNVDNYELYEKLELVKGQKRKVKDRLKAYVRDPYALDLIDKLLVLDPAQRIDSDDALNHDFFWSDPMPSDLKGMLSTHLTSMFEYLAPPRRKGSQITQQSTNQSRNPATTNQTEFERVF

SMILES | Kd (CDK9) [nM] | GI50 [1] [nM] | GI50 [2] [nM]
CCc1cnn2c(NCc3ccc(OCCOCCOCCOC4CCN(c5ccc(C(=O)N[C@H]6C(C)(C)[C@H](Oc7ccc(C#N)c(Cl)c7)C6(C)C)nn5)CC4)nc3)cc(N3CCCC[C@H]3CCO)nc12 [Compound I-44, N-((1r,3r)-3-(3-chloro-4-cyanophenoxy)-2,2,4,4-tetramethylcyclobutyl)-6-(4-(2-(2-(2-((5-(((3-ethyl-5-((S)-2-(2-hydroxyethyl)piperidin-1-yl)pyrazolo[1,5-a]pyrimidin-7-yl)amino)methyl)pyridin-2-yl)oxy)ethoxy)ethoxy)ethoxy)piperidin-1-yl)pyridazine-3-carboxamide] | 50 to 500 | < 500 | < 500
CCc1cnn2c(NCc3ccc(OC4CCN(CC5CCN(c6ncc(C(=O)N[C@H]7C(C)(C)[C@H](Oc8ccc(C#N)c(Cl)c8)C7(C)C)cn6)CC5)CC4)nc3)cc(N3CCCC[C@H]3CCO)nc12 [Compound I-46] | < 50 | < 500 | < 500
CCc1cnn2c(NCc3ccc(OCC4CCN(CC5CCN(c6ncc(C(=O)N[C@H]7C(C)(C)[C@H](Oc8ccc(C#N)c(Cl)c8)C7(C)C)cn6)CC5)CC4)nc3)cc(N3CCCC[C@H]3CCO)nc12 [Compound I-51] | 50 to 500 | < 500 | < 500
CC(C)n1cc(-c2ccnc3[nH]c(C4CCN(CCN5CCN(CC6CCN(c7ncc(C(=O)NC8C(C)(C)C(Oc9ccc(C#N)c(Cl)c9)C8(C)C)cn7)CC6)CC5)CC4)cc23)ccc1=O (stereo not drawn) [Compound I-74, N-[3-(3-chloro-4-cyano-phenoxy)-2,2,4,4-tetramethyl-cyclobutyl]-2-[4-[[4-[2-[4-[4-(1-isopropyl-6-oxo-3-pyridyl)-1H-pyrrolo [2,3-b]pyridin-2-yl]-1-piperidyl]ethyl]piperazin-1-yl]methyl]-1-piperidyl]pyrimidine-5-carboxamide] | < 50 | < 500 | < 500
CC1(C)[C@H](NC(=O)c2cnc(N3CCC(CN4CCN(CCN5C/C=C/CCOc6cccc(c6)-c6ccnc(n6)Nc6cccc(c6)C5)CC4)CC3)nc2)C(C)(C)[C@H]1Oc1ccc(C#N)c(Cl)c1 [Compound I-94] | 500 to 2500 | > 3000 | 500 to 1500
Cc1ncc(-c2nc(Nc3ccc(C(=O)N4CC[C@H](N(C)CCOC5CCN(c6ncc(C(=O)N[C@H]7C(C)(C)[C@H](Oc8ccc(C#N)c(Cl)c8)C7(C)C)cn6)CC5)C4)cc3)ncc2F)n1C(C)C [Compound I-95, N-[3-(3-chloro-4-cyano-phenoxy)-2,2,4,4-tetramethyl-cyclobutyl]-2-[4-[2-[[(3S)-1-[4-[[5-fluoro-4-(3-isopropyl-2-methyl-imidazol-4-yl)pyrimidin-2-yl]amino]benzoyl]pyrrolidin-3-yl]-methyl-amino]ethoxy]-1-piperidyl]pyrimidine-5-carboxamide] | 50 to 500 | < 500 | < 500
Cc1ncc(-c2nc(Nc3ccc(C(=O)N4CC[C@H](N(C)CCOCCOCCOC5CCN(c6ncc(C(=O)N[C@H]7C(C)(C)[C@H](Oc8ccc(C#N)c(Cl)c8)C7(C)C)cn6)CC5)C4)cc3)ncc2F)n1C(C)C [Compound I-96] | 50 to 500 | 1500 to 3000 | 1500 to 3000
Cc1ncc(-c2nc(Nc3ccc(C(=O)N4CC[C@H](N(C)CCOCCOCCOCCOCCOC5CCN(c6ncc(C(=O)N[C@H]7C(C)(C)[C@H](Oc8ccc(C#N)c(Cl)c8)C7(C)C)cn6)CC5)C4)cc3)ncc2F)n1C(C)C [Compound I-97] | 50 to 500 | 1500 to 3000 | 500 to 1500
